14 compounds from ChEMBL document CHEMBL1909046, “DrugMatrix in vitro pharmacology data” can be followed below.

Data set [1] addresses Estrogen receptor beta (Homo sapiens, UniProt Q92731). To be noted: sf9.
Data set [2] deals with T1, Nitric oxide synthase, inducible (Mus musculus, UniProt P29477).
T1 sequence (P29477 whole entry): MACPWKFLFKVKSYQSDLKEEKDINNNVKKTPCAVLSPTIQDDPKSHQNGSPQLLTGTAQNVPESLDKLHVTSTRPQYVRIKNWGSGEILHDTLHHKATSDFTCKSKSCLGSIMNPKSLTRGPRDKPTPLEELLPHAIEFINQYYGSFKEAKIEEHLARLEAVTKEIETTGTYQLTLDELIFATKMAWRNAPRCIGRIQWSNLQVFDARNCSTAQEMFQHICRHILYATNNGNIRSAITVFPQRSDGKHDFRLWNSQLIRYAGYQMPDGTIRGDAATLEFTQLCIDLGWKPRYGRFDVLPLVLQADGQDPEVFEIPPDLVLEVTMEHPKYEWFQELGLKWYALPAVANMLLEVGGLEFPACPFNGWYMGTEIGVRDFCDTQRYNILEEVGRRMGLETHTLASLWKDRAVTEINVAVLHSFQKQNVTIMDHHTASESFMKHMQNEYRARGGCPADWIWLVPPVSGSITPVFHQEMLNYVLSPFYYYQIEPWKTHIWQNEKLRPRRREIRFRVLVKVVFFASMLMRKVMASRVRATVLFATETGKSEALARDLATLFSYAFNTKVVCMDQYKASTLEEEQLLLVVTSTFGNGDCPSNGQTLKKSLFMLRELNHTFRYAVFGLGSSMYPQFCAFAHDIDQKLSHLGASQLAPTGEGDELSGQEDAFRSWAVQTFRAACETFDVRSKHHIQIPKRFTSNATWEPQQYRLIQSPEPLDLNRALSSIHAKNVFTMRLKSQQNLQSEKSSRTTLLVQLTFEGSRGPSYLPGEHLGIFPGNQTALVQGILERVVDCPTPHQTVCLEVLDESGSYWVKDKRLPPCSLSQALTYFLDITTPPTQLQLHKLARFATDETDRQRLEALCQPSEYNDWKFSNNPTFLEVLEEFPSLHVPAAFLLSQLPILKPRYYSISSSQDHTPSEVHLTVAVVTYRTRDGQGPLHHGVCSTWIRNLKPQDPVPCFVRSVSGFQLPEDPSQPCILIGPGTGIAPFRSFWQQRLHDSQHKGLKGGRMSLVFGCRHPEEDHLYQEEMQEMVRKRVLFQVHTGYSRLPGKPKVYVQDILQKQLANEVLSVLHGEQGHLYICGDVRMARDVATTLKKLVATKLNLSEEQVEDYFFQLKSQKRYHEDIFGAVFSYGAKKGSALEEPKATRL
The arrangement: species or system Escherichia coli.

Data set [3] can be described thus: DRUGMATRIX: GABAA, Muscimol, Central radioligand binding (ligand: [3H] Muscimol). It counts as cell membranes, Rattus norvegicus, Wistar, Brain, Membrane. Particulars: Not Active = under 50% inhibition at 10 µM.
Data set [4] deals with T2, Cytochrome P450 1A2 (Homo sapiens, UniProt P05177).
T2 sequence (P05177 whole entry): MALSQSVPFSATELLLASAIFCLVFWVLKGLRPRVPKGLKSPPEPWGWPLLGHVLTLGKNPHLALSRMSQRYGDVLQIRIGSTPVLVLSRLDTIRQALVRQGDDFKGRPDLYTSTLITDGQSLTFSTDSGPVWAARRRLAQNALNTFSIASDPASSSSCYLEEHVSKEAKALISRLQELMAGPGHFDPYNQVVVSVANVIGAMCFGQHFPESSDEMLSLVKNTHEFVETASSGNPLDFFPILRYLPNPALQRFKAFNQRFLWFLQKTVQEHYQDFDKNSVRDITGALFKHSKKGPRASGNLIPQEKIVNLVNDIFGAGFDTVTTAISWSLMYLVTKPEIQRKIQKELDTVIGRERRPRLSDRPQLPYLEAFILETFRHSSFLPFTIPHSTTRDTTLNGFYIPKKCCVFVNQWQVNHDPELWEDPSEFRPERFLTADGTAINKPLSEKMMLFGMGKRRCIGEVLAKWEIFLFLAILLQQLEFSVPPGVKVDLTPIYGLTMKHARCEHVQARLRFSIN
To be noted: bti-tn-5b1-4.

For data set [5], the target named is T3, Adenosine receptor A3 (Homo sapiens, UniProt P0DMS8).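 Also: radioligand binding assay with AB-MECA serving as the labeled ligand; in other assays of this panel Not Active means under 50% inhibition at 10 µM.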
T3 sequence (P0DMS8 whole entry): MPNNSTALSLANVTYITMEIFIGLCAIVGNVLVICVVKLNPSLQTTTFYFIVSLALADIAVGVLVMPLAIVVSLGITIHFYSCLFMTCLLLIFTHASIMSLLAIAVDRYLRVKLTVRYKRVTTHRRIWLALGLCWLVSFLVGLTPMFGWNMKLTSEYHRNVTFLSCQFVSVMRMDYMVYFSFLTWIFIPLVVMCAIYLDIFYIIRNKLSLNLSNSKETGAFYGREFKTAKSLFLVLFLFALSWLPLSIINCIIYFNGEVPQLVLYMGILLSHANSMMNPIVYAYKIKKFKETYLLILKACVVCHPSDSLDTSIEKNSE
The data set is classed as cell membranes, CHO-K1, Membrane.

For data set [6], the target named is T4, Muscarinic acetylcholine receptor M4 (Homo sapiens, UniProt P08173). Also: in other assays of this panel Not Active means under 50% inhibition at 10 µM.
T4 sequence (P08173 whole entry): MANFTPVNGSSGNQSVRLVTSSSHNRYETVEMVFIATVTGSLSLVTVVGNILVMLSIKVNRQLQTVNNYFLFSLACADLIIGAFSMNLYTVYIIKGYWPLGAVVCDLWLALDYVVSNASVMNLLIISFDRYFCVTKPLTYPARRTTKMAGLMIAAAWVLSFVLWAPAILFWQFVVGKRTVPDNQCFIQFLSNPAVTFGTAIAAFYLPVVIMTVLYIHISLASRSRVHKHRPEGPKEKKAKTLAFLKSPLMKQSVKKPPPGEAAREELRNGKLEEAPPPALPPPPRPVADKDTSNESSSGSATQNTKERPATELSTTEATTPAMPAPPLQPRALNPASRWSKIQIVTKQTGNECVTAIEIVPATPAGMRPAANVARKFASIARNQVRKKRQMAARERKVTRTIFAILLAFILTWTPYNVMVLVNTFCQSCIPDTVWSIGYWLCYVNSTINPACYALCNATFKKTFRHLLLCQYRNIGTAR
The data set is classed as cell membranes, CHO-K1, Membrane. Particulars: cho-k1.

In data set [7] the target is Vasopressin V1a receptor (Homo sapiens, UniProt P37288). It counts as cell membranes, Membrane. To be noted: hek293. Also: in other assays of this panel Not Active means under 50% inhibition at 10 µM.
Vasopressin V1a receptor, sequence (P37288 whole entry): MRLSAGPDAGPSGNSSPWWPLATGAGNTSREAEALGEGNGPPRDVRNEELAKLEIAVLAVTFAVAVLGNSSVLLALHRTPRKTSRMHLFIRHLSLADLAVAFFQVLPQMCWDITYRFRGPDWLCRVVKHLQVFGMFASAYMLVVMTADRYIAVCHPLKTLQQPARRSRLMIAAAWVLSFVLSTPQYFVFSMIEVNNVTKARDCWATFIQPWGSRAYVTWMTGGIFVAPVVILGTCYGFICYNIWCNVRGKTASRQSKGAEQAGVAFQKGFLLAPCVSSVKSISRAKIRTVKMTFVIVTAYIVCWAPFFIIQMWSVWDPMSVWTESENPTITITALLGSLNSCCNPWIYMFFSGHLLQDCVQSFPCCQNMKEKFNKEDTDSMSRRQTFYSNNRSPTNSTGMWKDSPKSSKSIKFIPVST

Estrogen receptor beta, sequence (Q92731 whole entry): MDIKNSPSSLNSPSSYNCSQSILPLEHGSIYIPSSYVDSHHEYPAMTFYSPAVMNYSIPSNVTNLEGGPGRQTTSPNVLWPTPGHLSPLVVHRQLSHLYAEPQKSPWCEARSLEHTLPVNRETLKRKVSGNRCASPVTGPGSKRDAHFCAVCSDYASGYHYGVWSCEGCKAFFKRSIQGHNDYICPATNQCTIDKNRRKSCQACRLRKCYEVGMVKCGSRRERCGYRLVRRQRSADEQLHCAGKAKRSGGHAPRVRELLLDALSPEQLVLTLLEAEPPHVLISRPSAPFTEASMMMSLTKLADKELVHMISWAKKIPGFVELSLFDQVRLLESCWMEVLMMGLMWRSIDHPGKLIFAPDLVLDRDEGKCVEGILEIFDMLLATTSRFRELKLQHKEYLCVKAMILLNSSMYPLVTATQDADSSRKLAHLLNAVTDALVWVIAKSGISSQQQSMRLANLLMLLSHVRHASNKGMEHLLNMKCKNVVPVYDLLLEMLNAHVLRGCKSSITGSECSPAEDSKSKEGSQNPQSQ

Turning to `COc1cc(N)nc2[nH]c(-c3ccc(F)cc3)c(-c3ccncc3)c12`, the IC50 result in data set [1], in data set [2], in data set [3], in data set [4], in data set [5] (cho-k1) and in data set [6] was “Not Active” each time. Also, in data set [7], the IC50 – broadly, the concentration at which inhibition is half-maximal – was “Not Active”. Further, the Ki result in data set [3] and in data set [4] was “Not Active” each time.
Take `CNS(=O)(=O)Cc1ccc2[nH]cc(CCN(C)C)c2c1`: the IC50 entry in data set [1], in data set [2], in data set [3], in data set [4], in data set [5] (cho-k1) and in data set [6] was “Not Active” each time. In addition, the IC50 entry in data set [7] is “Not Active”. Further, the Ki result in data set [3] and in data set [4] was “Not Active” each time.
Turning to `COc1ccc(/C=C/C(=O)Nc2ccccc2C(=O)O)cc1OC`, the IC50 entry in data set [1], in data set [2], in data set [3], in data set [4], in data set [5] (cho-k1) and in data set [6] was “Not Active” each time. Besides, the IC50 entry in data set [7] is listed as “Not Active”. In addition, the Ki entry in data set [3] and in data set [4] was “Not Active” each time.
As to `CC(=O)Nc1nnc(S(N)(=O)=O)s1` [ACETAZOLAMIDE], the IC50 result in data set [1], in data set [2], in data set [4], in data set [5] (cho-k1), in data set [6] and in data set [7] was “Not Active” each time. Further, the Ki – broadly, a measure of affinity in units of concentration, obtained from inhibition or displacement – in data set [4] is on record as “Not Active”.
As to `CC1=C(CC(=O)O)c2cc(F)ccc2/C1=C\c1ccc(S(C)(=O)=O)cc1` [EXISULIND], the IC50 entry in data set [1], in data set [2], in data set [3], in data set [4], in data set [5] (cho-k1) and in data set [6] was “Not Active” in each case. The IC50 result in data set [7] is reported as “Not Active”. Besides, the Ki result in data set [3] and in data set [4] was “Not Active” throughout.
For `CC(C)OC(=O)C(C)(C)Oc1ccc(C(=O)c2ccc(Cl)cc2)cc1` [FENOFIBRATE], the IC50 entry is “Not Active” in data set [1]; “Not Active” in data set [2]; “Not Active” in data set [4]; 5.7 µM in data set [5] (read-out: IC50); “Not Active” in data set [6]; “Not Active” in data set [7]. Also, the Ki result in data set [4] is “Not Active”; in data set [5] (read-out: Ki), 3.22 µM.
Regarding `CN1C2CCCC1CC(NC(=O)c1nn(C)c3ccccc13)C2` (configuration not stated) [GRANISETRON], the IC50 result in data set [1], in data set [2], in data set [4], in data set [5] (cho-k1), in data set [6] and in data set [7] was “Not Active” each time. Also, the Ki entry in data set [4] is recorded as “Not Active”.
With `Nc1nc2c(c(=O)[nH]1)N(C=O)C(CNc1ccc(C(=O)N[C@@H](CCC(=O)O)C(=O)O)cc1)CN2` (some centres not stated) [LEUCOVORIN], the IC50 entry in data set [1], in data set [2], in data set [3], in data set [4], in data set [5] (cho-k1) and in data set [6] was “Not Active” in each case. Moreover, the IC50 entry in data set [7] is “Not Active”. The Ki entry in data set [3] and in data set [4] was “Not Active” throughout.
In the case of `C[C@@H](O)[C@H]1C(=O)N2C(C(=O)O)=C(S[C@@H]3CN[C@H](C(=O)N(C)C)C3)[C@H](C)[C@H]12` [MEROPENEM], the IC50 entry in data set [1], in data set [2], in data set [3], in data set [4], in data set [5] (cho-k1) and in data set [6] was “Not Active” throughout. Besides, in data set [7], the IC50 result is “Not Active”. The Ki result in data set [3] and in data set [4] was “Not Active” in each case.
With `CC[C@@H](CO)NC(=O)[C@@H]1C=C2c3cccc4c3c(cn4C)C[C@H]2N(C)C1` [METHYSERGIDE], the IC50 entry in data set [1], in data set [2], in data set [4], in data set [5] (cho-k1), in data set [6] and in data set [7] was “Not Active” throughout. The Ki entry in data set [4] is recorded as “Not Active”.
Consider `CN(CCOc1ccc(CC2SC(=O)NC2=O)cc1)c1ccccn1` (configuration not stated) [ROSIGLITAZONE], for which the IC50 result in data set [1], in data set [2], in data set [3], in data set [4], in data set [5] (cho-k1) and in data set [6] was “Not Active” throughout. Further, the IC50 entry in data set [7] is recorded as “Not Active”. Further, the Ki result in data set [3] and in data set [4] was “Not Active” each time.
On to `C#CCN(C)[C@H](C)Cc1ccccc1` [SELEGILINE], for which the IC50 result in data set [1], in data set [2], in data set [3], in data set [4], in data set [5] (cho-k1) and in data set [6] was “Not Active” each time. Moreover, in data set [7], the IC50 result was “Not Active”. For the same compound, the Ki result in data set [3] and in data set [4] was “Not Active” throughout.
Turning to `CO[C@H]1C[C@@H]2CC[C@@H](C)[C@@](O)(O2)C(=O)C(=O)N2CCCC[C@H]2C(=O)O[C@H]([C@H](C)C[C@@H]2CC[C@@H](O)[C@H](OC)C2)CC(=O)[C@H](C)/C=C(\C)[C@@H](O)[C@@H](OC)C(=O)[C@H](C)C[C@H](C)/C=C/C=C/C=C/1C` [SIROLIMUS], the IC50 entry in data set [1], in data set [2], in data set [3], in data set [4], in data set [5] (cho-k1) and in data set [6] was “Not Active” in each case. Further, the IC50 result in data set [7] is “Not Active”. In addition, the Ki entry in data set [3] and in data set [4] was “Not Active” each time.
For the compound `COc1ccc(CN2CCNCC2)c(OC)c1OC` [TRIMETAZIDINE], the IC50 result in data set [1], in data set [2], in data set [3], in data set [5] (cho-k1), in data set [6] and in data set [7] was “Not Active” throughout. The Ki result in data set [3] was “Not Active”.
